The values that follow come from ChEMBL document CHEMBL1152943, “Synthesis and in vitro anti-hepatitis B virus activity of 6H-[1]benzothiopyrano[4,3-b]quinolin-9-ols” (Bioorg Med Chem, 2009).

Each structure is given as a SMILES string. pIC50: −log10 of the molar value.

In test [1] the test system is Hepatitis B virus. The test can be described thus: Antiviral activity against HBV infected in human HepG2(2.2.15) cells assessed as inhibition of HBV DNA replication. In kind it is functional, organism-based. The conditions noted are these: for IC50: hepg2 2.2.15; for pIC50: Hepatitis B virus, HepG2 2.2.15, read-out: IC50.
Test [2] can be described thus: Cytotoxicity against human HepG2(2.2.15) cells after 24 hrs by neutral red dye staining. It counts as functional. The conditions noted are these: HepG2 2.2.15, 24 h.
The test system of test [3] is Hepatitis B virus. The test can be described thus: Antiviral activity against HBV infected in human HepG2(2.2.15) cells assessed as inhibition of HBV surface antigen at < TC50. In kind it is functional, organism-based.
Test [4] in a line: Selectivity index, ratio of TC50 for human HepG2(2.2.15) cells to IC50 for inhibition of HBV DNA replication.
Test [5] is described as follows: Selectivity index, ratio of TC50 for human HepG2(2.2.15) cells to IC50 for inhibition of HBV surface antigen.
Test [6] concerns Hepatitis B virus. The test can be described thus: Antiviral activity against HBV infected in human HepG2(2.2.15) cells assessed as inhibition of HBV surface antigen. It counts as functional, organism-based.

Regarding `COc1cc2nc3c(cc2c(CN2CCN(C)CC2)c1O)CSc1ccccc1-3`, the IC50 entry in test [1] and in test [3] was “Not Active” throughout. In test [2], the CC50 (as a rule, the concentration that lowers cell viability or growth by half) was 25.2 µM.
As to `CCN(CC)Cc1c(O)c(OC)cc2nc3c(cc12)CSc1ccc(C)cc1-3`, the negative-log IC50 (pIC50) (in general, the negative decadic logarithm of the IC50, by convention in mol/L) in test [1] was 5.70. Further, half-maximal cytotoxicity in test [2] (CC50) was put at 12 µM. Moreover, the “Selectivity Index” value in test [4] came out at 6. Besides, the IC50 result in test [3] is recorded as “Not Active”.
Regarding `COc1cc2nc3c(cc2c(CN2CCOCC2)c1O)CSc1cc(F)ccc1-3`, the IC50 entry in test [1] and in test [3] was “Not Active” in each case. In test [2], this molecule gave a CC50 of 28.8 µM.
Regarding `CCN(CC)Cc1c(O)c(OC)cc2nc3c(cc12)CSc1cc(F)ccc1-3`, the pIC50 in test [1] was 5.62. In addition, the 50% cytotoxic concentration (CC50) in test [2] is 20.7 µM. Besides, in test [4], the “Selectivity Index” value was found to be 8.7. Moreover, the IC50 entry in test [3] is given as “Not Active”.
As to `COc1cc2nc3c(cc2c(CN2CCCC2)c1O)CSc1cc(F)ccc1-3`, the pIC50 in test [1] is 3.76. In addition, the 50% cytotoxic concentration (CC50) in test [2] was found to be 566 µM. Also, the “Selectivity Index” value in test [4] amounted to 3.3. Besides, the IC50 result in test [3] is recorded as “Not Active”.
As to `COc1cc2nc3c(cc2c(CN(C)C)c1O)CSc1ccccc1-3`, the “Selectivity Index” value in test [5] is reported as 3.9. Also, in test [6], the pIC50 is 5.03. Also, in test [1], the IC50 entry was “Not Active”. Also, the midpoint of cytotoxicity in test [2], the CC50, lay at 36.5 µM.
For `COc1cc2nc3c(cc2c(CN2CCCC2)c1O)CSc1ccc(F)cc1-3`, the negative-log IC50 (pIC50) in test [1] was 4.32. In addition, in test [2], the 50% cytotoxic concentration (CC50) came out at 435 µM. For the same molecule, in test [4], the “Selectivity Index” value came to 9.1. In addition, the IC50 result in test [3] is given as “Not Active”.
On to `COc1cc2nc3c(cc2c(CN2CCOCC2)c1O)CSc1ccccc1-3`, for which the IC50 entry in test [1] and in test [3] was “Not Active” in each case. This molecule also came in with a CC50 in test [2] of 42.1 µM.
As for `COc1cc2nc3c(cc2c(CN2CCOCC2)c1O)CSc1c(C)cc(C)cc1-3`, the IC50 result in test [1] and in test [3] was “Not Active” each time. Further, the CC50 in test [2] stood at 50.6 µM.
For the molecule `COc1cc2nc3c(cc2c(CN2CCN(C)CC2)c1O)CSc1ccc(C)cc1-3`, the pIC50 in test [1] is 3.97. This molecule displayed a half-maximal cytotoxic concentration (CC50) in test [2] of 527 µM. In addition, the “Selectivity Index” value in test [4] is listed as 4.9. The IC50 result in test [3] was “Not Active”.
Consider `COc1cc2nc3c(cc2c(CN2CCN(C)CC2)c1O)CSc1cc(F)ccc1-3`, for which the IC50 result in test [1] and in test [3] was “Not Active” each time. Moreover, the CC50 in test [2] was determined as 13.5 µM.
With `COc1cc2nc3c(cc2c(CN(C)C)c1O)CSc1ccc(C)cc1-3`, the “Selectivity Index” value in test [5] is given as 3. Also, in test [6], the pIC50 is 4.66. For the same molecule, the IC50 result in test [1] is given as “Not Active”. Half-maximal cytotoxicity in test [2] (CC50) was put at 67.3 µM.
As for `COc1cc2nc3c(cc2c(CN2CCOCC2)c1O)CSc1cc(C)ccc1-3`, the IC50 result in test [1] and in test [3] was “Not Active” in each case. In test [2], the half-maximal cytotoxic concentration (CC50) stood at 262 µM.
Consider `COc1cc2nc3c(cc2c(CN2CCCC2)c1O)CSc1ccc(C)cc1-3`, for which the pIC50 in test [1] was 4.25. The molecule also registered a CC50 in test [2] of 146 µM. Moreover, the “Selectivity Index” value in test [4] is given as 2.6. For the same molecule, the IC50 entry in test [3] is on record as “Not Active”.
Take `CCN(CC)Cc1c(O)c(OC)cc2nc3c(cc12)CSc1ccccc1-3`: the IC50 result in test [1] and in test [3] was “Not Active” each time. In addition, in test [2], the half-maximal cytotoxic concentration (CC50) is 39 µM.
As to `COc1cc2nc3c(cc2c(CN2CCCCC2)c1O)CSc1c(C)cc(C)cc1-3`, in test [1], the pIC50 was 5.38. In addition, in test [2], the CC50 came to 21.9 µM. The “Selectivity Index” value in test [4] came to 5.3. Besides, in test [3], the IC50 result was “Not Active”.
Taken in the same sequence, the figures for `COc1cc2nc3c(cc2c(CN2CCOCC2)c1O)CSc1ccc(C)cc1-3` were 4.83, 181 µM, 12.4 and “Not Active”.
Take `COc1cc2nc3c(cc2c(CN(C)C)c1O)CSc1c(C)cc(C)cc1-3`: the “Selectivity Index” value in test [5] amounted to 2.4. In addition, the pIC50 in test [6] was 4.86. Besides, in test [1], the IC50 result is on record as “Not Active”. Besides, in test [2], the 50% cytotoxic concentration (CC50) turned out to be 32.4 µM.
For `Nc1ccn([C@@H]2CS[C@H](CO)O2)c(=O)n1` [LAMIVUDINE], the negative logarithm of the IC50 (pIC50) in test [1] is 3.62. The CC50 in test [2] turned out to be 2180 µM. For the same molecule, the “Selectivity Index” value in test [4] was found to be 9.1. Moreover, the IC50 entry in test [3] was “Not Active”.
